Source: patent US6737383B1, “Herbicidal oxadiazolidines” (priority 1999, dated 2004)

Assays:
purple nutsedge = assay: Test B pre/postemergence purple nutsedge; type: in vivo, Cyperus rotundus; details: Postemergence
Summary of the method: (§1)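 Herbicidal effect was estimated by eye on a ten-point control scale after plants spent twelve to sixteen days in a greenhouse following soil or foliar treatment. Foliar sprays targeted plants at one to four leaves; all doses were formulated in a non-phytotoxic solvent with surfactant.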

rape = assay: Test B pre/postemergence rape; type: in vivo, Brassica napus
Summary of the method: as §1

giant foxtail = assay: Test B pre/postemergence giant foxtail; type: in vivo, Setaria faberii
Summary of the method: as §1

bedstraw = assay: Test B pre/postemergence bedstraw; type: in vivo, Galium aparine
Summary of the method: as §1

rice = assay: Test B flood test rice; type: in vivo, Oryza sativa
Summary of the method: (§2)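 Read-out is a visual response score from 0 (no effect) to 10 (complete control), assigned by comparison with untreated controls. Treatment was applied at the 2-leaf stage, and plants stayed in the greenhouse for twelve to sixteen days before scoring.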

smallflower flatsedge = assay: Test B flood test smallflower flatsedge; type: in vivo, Cyperus difformis
Summary of the method: as §2

duck salad = assay: Test B flood test duck salad; type: in vivo, Heteranthera limosa
Summary of the method: as §2

corn = assay: Test B pre/postemergence corn; type: in vivo, Zea mays
Summary of the method: as §1

velvetleaf = assay: Test B pre/postemergence velvetleaf; type: in vivo, Abutilon theophrasti
Summary of the method: as §1

blackgrass = assay: Test B pre/postemergence blackgrass; type: in vivo, Alopecurus myosuroides
Summary of the method: as §1

pigweed = assay: Test B pre/postemergence pigweed; type: in vivo, Amaranthus retroflexus
Summary of the method: as §1

bamyardgrass = assay: Test B flood test barnyardgrass; type: in vivo, Echinochloa crus-galli
Summary of the method: as §2

surinam grass = assay: Test B pre/postemergence surinam grass; type: in vivo, Brachiaria decumbens
Summary of the method: as §1

soybean = assay: Test B pre/postemergence soybean; type: in vivo, Glycine max
Summary of the method: as §1

sugar beet = assay: Test B pre/postemergence sugar beet; type: in vivo, Beta vulgaris
Summary of the method: as §1

morningglory = assay: Test B pre/postemergence morningglory; type: in vivo, Ipomoea hederacea
Summary of the method: as §1

[1] = Preemergence, Rate 62 g/ha, scale of 0 to 10 where 0 is no effect and 10 is complete control
[2] = Preemergence, Rate 250 g/ha, scale of 0 to 10 where 0 is no effect and 10 is complete control
[3] = Preemergence, Rate 500 g/ha, scale of 0 to 10 where 0 is no effect and 10 is complete control
[4] = Rate 62 g/ha, Postemergence, scale of 0 to 10 where 0 is no effect and 10 is complete control
[5] = Rate 125 g/ha, Postemergence, scale 0 to 10
[6] = Rate 125 g/ha, Preemergence, scale of 0 to 10 where 0 is no effect and 10 is complete control
[7] = Rate 500 g/ha, Postemergence, scale 0 to 10, 0 no effect, 10 complete control
[8] = Rate 62 g/ha, headed Pre-emergence (flood test species), scale 0 to 10 (0 no effect, 10 complete control)
[9] = Rate 125 g/ha, Pre-emergence, flood test species, scale 0 to 10 where 0 is no effect and 10 is complete control
[10] = Rate 250 g/ha, Pre-emergence, flood-test species, scale 0 to 10, 0 is no effect, 10 is complete control
[11] = Rate 500 g/ha, Pre-emergence, flood test species, scale 0 to 10 (0 no effect, 10 complete control)

CC(C)N(C(=O)n1oc(=O)n(CC2(C)COC2)c1=O)c1ccc(F)cc1 [Compound 226]
5: Plant response rating (0 to 10; 0 is no effect, 10 is complete control), Bedstraw (bedstraw; Rate 250 g/ha, Postemergence) | Velvetleaf plant response rating (velvetleaf; [6]) | Blackgrass plant response rating (blackgrass; [5]) | Sugarbeets plant response rating (sugar beet; [2]) | Morningglory plant response rating (morningglory; [4])
2: Giant foxtail plant response rating (giant foxtail; [4]) | Velvetleaf plant response rating (velvetleaf; [1]) | B. signalgrass plant response rating (surinam grass; Rate 125 g/ha, Postemergence, scale 0 (no effect) to 10 (complete control)) | Soybean plant response rating (soybean; [4]) | Soybean plant response rating (soybean; [5]) | Sugarbeets plant response rating (sugar beet; [7])
3: Bedstraw plant response rating (bedstraw; [5]) | B. signalgrass plant response rating (surinam grass; [1]) | Plant response rating (0 to 10; 0 is no effect, 10 is complete control), Soybean (soybean; Rate 250 g/ha, Postemergence) | Sugarbeets plant response rating (sugar beet; [6])
6: Rape plant response rating (rape; [7]) | Corn plant response rating (corn; [2]) | Corn plant response rating (corn; [7]) | Velvetleaf plant response rating (velvetleaf; [2]) | B. signalgrass plant response rating (surinam grass; [6]) | Plant response rating (0 to 10; 0 is no effect, 10 is complete control), B. signalgrass (surinam grass; Rate 250 g/ha, Postemergence) | Soybean plant response rating (soybean; [7]) | Plant response rating, Sugarbeets (sugar beet; [3])
8: Plant response rating (0 to 10; 0 is no effect, 10 is complete control), Blackgrass (blackgrass; Rate 250 g/ha, Postemergence) | Plant response rating, Morningglory (morningglory; [3])
7: Rape plant response rating (rape; [2]) | Giant foxtail plant response rating (giant foxtail; [5]) | Plant response rating (0 to 10; 0 is no effect, 10 is complete control), Giant foxtail (giant foxtail; Rate 250 g/ha, Postemergence) | Giant foxtail plant response rating (giant foxtail; [7]) | Bedstraw plant response rating (bedstraw; [7]) | Plant response rating, Velvetleaf (velvetleaf; [3]) | Redroot pigweed plant response rating (pigweed; [2]) | Morningglory plant response rating (morningglory; [2]) | Morningglory plant response rating (morningglory; [5]) | Plant response rating (0 to 10; 0 is no effect, 10 is complete control), Morningglory (morningglory; Rate 250 g/ha, Postemergence) | Morningglory plant response rating (morningglory; [7])
0: Nutsedge plant response rating (purple nutsedge; Rate 62 g/ha, scale of 0 to 10 where 0 is no effect and 10 is complete control) | Nutsedge plant response rating (purple nutsedge; Rate 125 g/ha, scale 0 to 10) | Plant response rating (0 to 10; 0 is no effect, 10 is complete control), Nutsedge (purple nutsedge; Rate 250 g/ha) | Rape plant response rating (rape; [1]) | Rape plant response rating (rape; [4]) | Rape plant response rating (rape; [5]) | Rape plant response rating (rape; [6]) | Plant response rating (0 to 10; 0 is no effect, 10 is complete control), Rape (rape; Rate 250 g/ha, Postemergence) | Bedstraw plant response rating (bedstraw; [1]) | Bedstraw plant response rating (bedstraw; [2]) | Plant response rating, Bedstraw (bedstraw; [3]) | Bedstraw plant response rating (bedstraw; [4]) | Bedstraw plant response rating (bedstraw; [6]) | Rice plant response rating (rice; [8]) | Rice plant response rating (rice; [9]) | Rice plant response rating (rice; [10]) | Rice plant response rating (rice; [11]) | S. Flatsedge plant response rating (smallflower flatsedge; [8]) | S. Flatsedge plant response rating (smallflower flatsedge; [9]) | S. Flatsedge plant response rating (smallflower flatsedge; [10]) | S. Flatsedge plant response rating (smallflower flatsedge; [11]) | Ducksalad plant response rating (duck salad; [8]) | Ducksalad plant response rating (duck salad; [9]) | Ducksalad plant response rating (duck salad; [10]) | Ducksalad plant response rating (duck salad; [11]) | Corn plant response rating (corn; [1]) | Corn plant response rating (corn; [4]) | Corn plant response rating (corn; [5]) | Corn plant response rating (corn; [6]) | Plant response rating (0 to 10; 0 is no effect, 10 is complete control), Corn (corn; Rate 250 g/ha, Postemergence) | Velvetleaf plant response rating (velvetleaf; [4]) | Velvetleaf plant response rating (velvetleaf; [5]) | Plant response rating (0 to 10; 0 is no effect, 10 is complete control), Velvetleaf (velvetleaf; Rate 250 g/ha, Postemergence) | Velvetleaf plant response rating (velvetleaf; [7]) | Blackgrass plant response rating (blackgrass; [4]) | Redroot pigweed plant response rating (pigweed; [1]) | Redroot pigweed plant response rating (pigweed; [4]) | Redroot pigweed plant response rating (pigweed; [5]) | Redroot pigweed plant response rating (pigweed; [6]) | Plant response rating (0 to 10; 0 is no effect, 10 is complete control), Redroot pigweed (pigweed; Rate 250 g/ha, Postemergence) | Redroot pigweed plant response rating (pigweed; [7]) | Barnyardgrass plant response rating (bamyardgrass; [8]) | Barnyardgrass plant response rating (bamyardgrass; [9]) | Barnyardgrass plant response rating (bamyardgrass; [10]) | Barnyardgrass plant response rating (bamyardgrass; [11]) | B. signalgrass plant response rating (surinam grass; [4]) | Soybean plant response rating (soybean; [1]) | Soybean plant response rating (soybean; [2]) | Plant response rating, Soybean (soybean; [3]) | Soybean plant response rating (soybean; [6]) | Sugarbeets plant response rating (sugar beet; [1]) | Sugarbeets plant response rating (sugar beet; [4]) | Sugarbeets plant response rating (sugar beet; [5]) | Plant response rating (0 to 10; 0 is no effect, 10 is complete control), Sugarbeets (sugar beet; Rate 250 g/ha, Postemergence) | Morningglory plant response rating (morningglory; [1]) | Morningglory plant response rating (morningglory; [6])
9: Giant foxtail plant response rating (giant foxtail; [1]) | Plant response rating, Corn (corn; [3]) | Blackgrass plant response rating (blackgrass; [7]) | Plant response rating, Redroot pigweed (pigweed; [3]) | B. signalgrass plant response rating (surinam grass; Preemergence, Rate 250 g/ha, scale 0 to 10, 0 is no effect, 10 is complete control) | B. signalgrass plant response rating (surinam grass; [7])
10: Plant response rating, Rape (rape; [3]) | Giant foxtail plant response rating (giant foxtail; [2]) | Plant response rating, Giant foxtail (giant foxtail; [3]) | Giant foxtail plant response rating (giant foxtail; [6]) | Blackgrass plant response rating (blackgrass; [1]) | Blackgrass plant response rating (blackgrass; [2]) | Plant response rating, Blackgrass (blackgrass; [3]) | Blackgrass plant response rating (blackgrass; [6]) | Plant response rating, B. signalgrass (surinam grass; [3])
4: Nutsedge plant response rating (purple nutsedge; Rate 500 g/ha, scale 0 to 10, 0 no effect, 10 complete control)
